{"source": "patent US20110098219A1", "about": "“System for Curing Hepatic Cancer with Leptin” (KAOHSIUNG MEDICAL UNIVERSITY, priority 2009, published 2011)", "key": {"[1]": {"system": "liver cancer cells", "assay": "Flow cytometry, cell cycle of liver cancer cells", "assay_type": "cell-based", "conditions": "MPA only, 24 hours", "procedure": "Please refer to FIG. 6A and FIG. 6B, which are views showing effect of MPA+leptin on cell cycle. As shown in the figures, for further recognizing role of MPA+leptin for liver cancer cells, the preferred embodiment applies leptin only, MPA only and MPA+leptin on liver cancer cells for 24 hours and a flow cytometry is used to show their effects on cell cycle. Furthermore, sub-G1/apoptosis parts in the cell cycle are analyzed through student's t-test."}, "[2]": {"system": "cleaved caspase 3, cleaved caspase 7 and cleaved PARP", "assay": "Western blotting of apoptosis-related proteins", "assay_type": "cell-based", "conditions": "24 hours", "procedure": "Please refer to FIG. 7, which is a view showing effect of MPA+leptin on related proteins for apoptosis. As shown in the figure, through analysis on liver cancer cells after applied with MPA+leptin for 24 hours, observation is done with a focus on changes of their related proteins for apoptosis. When different doses of MPA are combined with different doses of leptin for treatment for 24 hours, cellular proteins of anti-cleaved caspase 3, anti-cleaved caspase 7 and anti-cleaved Poly-ADP-ribose-polymerase (PARP) are processed with western blotting."}, "[3]": {"system": "JAK/STAT path", "assay": "Western blotting of JAK/STAT path proteins in liver cancer cells", "assay_type": "cell-based", "conditions": "24 hours", "procedure": "Please refer to FIG. 11, which is a view showing expression of JAK/STAT path after applied with a drug. As shown in the figure, the preferred embodiment analyzes related proteins of liver cancer cells through western blotting after applied with MPA+leptin for 24 hours.\nPlease refer to FIG. 13A and FIG. 13A, which are views showing expressions of proteins of JAK/STAT path and proteins of MAPK path after applied with a drug for a short time. As shown in the figures, the preferred embodiment processes liver cancer cells with high-dose leptin, high-dose MPA and high-dose leptin combined with high-dose MPA for 30 minutes. Then, related JAK/STAT proteins are collected for analyzing their expressions through western blotting.\nPlease refer to FIG. 14, which is a view showing reduced p-STAT3 degradation by suppressing the ERK1/2 activation and the PIAS3 expression. […] The preferred embodiment uses a 10^−6M p-ERK1/2 inhibitor (U0126) for 4 hours before a drug is applied; then, liver cancer cells are applied with the drug of MPA+leptin for 3 hours to collect cellular proteins for analyzing expression of related proteins through western blotting. […] As a conclusion, MPA activates ERK1/2 to indirectly induce PIAS3 expression for suppressing p-STAT3 (Tyr705) for cell apoptosis, where leptin enhances activation of ERK1/2 with MPA for increasing cell apoptosis.\nPlease refer to FIG. 15A to FIG. 16B, which are views showing cells containing very much leptin within; suppressed growth of the cells by using MPA; and STAT3- and MAPK-signal paths of the cells after MPA is applied. […] Then, after the cells are processed with 10^−4M MPA for 24 hours, cell growth is analyzed through XTT assay. […] Then, after the cells are processed with 10^−4 M MPA for 24 hours, JAK/STAT-related proteins are analyzed through western blotting."}, "[4]": {"system": "epithelial cell line of normal liver (THLE-3)", "assay": "XTT assay, survival of normal liver epithelial cell line", "assay_type": "cell-based", "conditions": "THLE-3, FIG. 17A", "procedure": "Please refer to FIG. 17A to FIG. 18B, which are views showing epithelial cell line of normal liver treated with MPA+leptin for 24 hours and 48 hours respectively; and views showing STAT3- and MAPK-related signal paths after treating cell line of normal liver with MPA+leptin. As shown in the figures, after epithelial cell line of normal liver (THLE-3) is applied with MPA+leptin for […], MPA+leptin's effect on cell growth (i.e. survival rate) is analyzed through XTT assay. […] Besides, in FIG. 18A and FIG. 18B, protein expressions for STAT- and MAPK-related signal paths are analyzed."}, "[5]": {"system": "liver cancer patients", "assay": "Survival of liver cancer patients treated with MPA after surgery", "assay_type": "in vivo, human", "conditions": "P value 0.008", "source_text": "In ‘in vitro’ studies and clinical experiments, leptin and MPA are found to have obvious effect on suppressing liver cancer cells and improving patient's survival rate. Thus, the therapeutic drug is formed by combining MAP with leptin to cure liver cancer patients, where the physiological concentration of leptin in a normal human body is almost able to enhance the treatment effect of MPA. MPA is used for treatment in the present invention, where, for obtaining a better effect, leptin is directly combined with MPA or leptin is obtained by increasing the physiological concentration of leptin in the patient at first.\nConsequently, the leptin expression can be taken as an index for effectiveness of the hormone therapy (i.e. MPA) after the surgery; and, the survival time of the liver cancer patients can be maintained or even prolonged."}, "[6]": {"system": "liver cancer patients", "conditions": "prior researches, FIG. 19B; P value 0.171; cited from earlier work"}}, "data": [{"compound": "CC(=O)O[C@]1(C(C)=O)CC[C@H]2[C@@H]3C[C@H](C)C4=CC(=O)CC[C@]4(C)[C@H]3CC[C@@]21C", "note": "[MPA, medroxyprogesterone acetate]", "values": [{"measurement": "G1 and G2/M", "setting": "[1]", "result": "decreased trend"}, {"measurement": "S", "setting": "[1]", "result": "increased trend"}, {"measurement": "sub-G1", "setting": "[1]", "result": "increasing trend"}, {"measurement": "activation of cleaved caspase 3/7 and cleaved PARP", "setting": "[2]", "result": "obviously activated"}, {"measurement": "p-ob-R, ob-R and PgR expression", "setting": "[3]", "result": "suppresses"}, {"measurement": "activation of STAT3 compared with cells without much leptin", "setting": "[3]; pcLeptin-transfected cells, 10^-4 M MPA", "result": "more obviously suppressed"}, {"measurement": "effect on survival rate of, and poisoning of, normal liver epithelial cells", "setting": "[4]", "result": "no obvious effect"}, {"measurement": "survival time, patients with higher versus lower leptin expression", "setting": "[5]", "result": "longer survival time"}, {"measurement": "association of patient's survival rate with MPA treatment after surgery", "setting": "[6]", "result": "did not find significant association"}]}]}
